Test results: patent US12275719B2, “Small molecule inhibitors of galectin-3” (BRISTOL-MYERS SQUIBB COMPANY, priority 2019, dated 2025)

Target: His-tagged recombinant human Gal-3 (hGal-3) (Homo sapiens, UniProt P17931)
Assay: Gal-3 HTRF assay (hGal-3 / B-ASF binding inhibition)
Conditions: Examples 26 to 29 and 66 to 68; HTRF, 15 nM hGal-3, 15 nM B-ASF
Description: ASSAY BUFFER Composition: 25 mM HEPES, 100 mM NaCl, 0.005% Tween 20, 0.05% BSA prepared in sterile water (all reagents from Sigma).
Positive Control: 100% DMSO (1 μL)+His-tagged hGal-3 (20 μL)+β-ASF (20 μL)+Anti-His Terbium Antibody (5 μL)+Strep d2 Antibody (5 μL).
Negative Control: 100% DMSO (1 μL)+His-tagged hGal-3 (20 μL)+Anti His Terbium Antibody (5 μL)+Strep d2 Aantibody (5 μL).
PROTOCOL: The Gal-3 assays were performed in 384 white Opti plates in three replicates at room temperature with gentle shaking at 250-300 rpm From the original stocks, […] working stock concentrations of His-tagged recombinant human Gal-3 (hGal-3) and that of B-ASF were prepared. From the working stock, 20 μL of hGal-3 (15 nM) and 20 μL B-ASF (15 nM) were added to the plates. In Negative Control, only hGal-3 was added. A concentration range of 50× working stocks were prepared for the compounds in 100% DMSO. Aliquots of 1 μL of the compounds were added to the wells and pre-incubated with 20 μL hGal-3 per well for 30 minutes Then 20 μL B-ASF were added and incubated for another 1 hour. To detect the signal, 5 μL (final conc. of 1.0 nM) terbium labelled Anti-His antibody was added and incubated for 30 min followed by adding 5 μL (final conc. of 20 nM) Streptavidin d2 and incubation for another 1 hour. The assay signal was detected using HTRF screen protocol (Excitation wavelength=340 nm, emission wavelength=615 nm/665 nm) on Envision 2104 Multilabel Reader. Data analysed using Toolset and Curve Master. Results are reported in the experimental section (IC50 in μM).

Sequence of His-tagged recombinant human Gal-3 (hGal-3) (P17931 whole entry): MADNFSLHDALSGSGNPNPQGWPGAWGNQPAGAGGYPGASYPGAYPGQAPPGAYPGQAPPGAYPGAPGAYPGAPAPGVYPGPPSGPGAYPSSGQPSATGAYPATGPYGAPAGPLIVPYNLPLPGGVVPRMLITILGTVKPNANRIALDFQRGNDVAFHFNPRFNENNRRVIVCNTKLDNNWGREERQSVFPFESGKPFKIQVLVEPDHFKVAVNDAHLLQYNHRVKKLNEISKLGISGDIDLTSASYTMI

| IC50 [nM] | SMILES |
| --- | --- |
| 750 | Cn1nc([C@@H]2O[C@H](CO)[C@H](O)[C@H](n3cc(-c4ccc(Br)c(F)c4F)nn3)[C@H]2O)n(-c2cc(Cl)ccc2C(F)(F)F)c1=S [Example 66, 5-((2S,3R,4R,5R,6R)-4-(4-(4-bromo-2,3-difluorophenyl)-1H-1,2,3-triazol-1-yl)-3,5-dihydroxy-6-(hydroxymethyl)tetrahydro-2H-pyran-2-yl)-4-(5-chloro-2-(trifluoromethyl)phenyl)-2-methyl-2,4-dihydro-3H-1,2,4-triazole-3-thione] |
| 9.3 | Cn1nc([C@@H]2O[C@H](CO)[C@H](O)[C@H](n3cc(-c4ccc(Br)c(F)c4F)nn3)[C@H]2O)n(-c2cc(Cl)ccc2C(F)(F)F)c1=S [Example 67, 5-((2S,3R,4R,5R,6R)-4-(4-(4-bromo-2,3-difluorophenyl)-1H-1,2,3-triazol-1-yl)-3,5-dihydroxy-6-(hydroxymethyl)tetrahydro-2H-pyran-2-yl)-4-(5-chloro-2-(trifluoromethyl)phenyl)-2-methyl-2,4-dihydro-3H-1,2,4-triazole-3-thione] |
| 25 | OC[C@H]1O[C@@H](c2nncn2-c2ccc3ncsc3c2)[C@H](OCC(F)F)[C@@H](n2cc(-c3cc(F)c(Br)c(F)c3)nn2)[C@H]1O [Example 68, (2R,3R,4S,5R,6S)-6-(4-(benzo[d]thiazol-6-yl)-4H-1,2,4-triazol-3-yl)-4-(4-(4-bromo-3,5-difluorophenyl)-1H-1,2,3-triazol-1-yl)-5-(2,2-difluoroethoxy)-2-(hydroxymethyl)tetrahydro-2H-pyran-3-ol] |

Same assay, conditions: table of Examples 30 to 65

| IC50 [nM] | SMILES |
| --- | --- |
| 19 | OC[C@H]1O[C@@H](c2nncn2-c2cc(Cl)ccc2OC(F)(F)F)[C@H](OCC(F)F)[C@@H](n2cc(-c3ccc(Cl)c(F)c3F)nn2)[C@H]1O [Example 53] |
| 12 | OC[C@H]1O[C@@H](c2nncn2-c2cc(Cl)ccc2C(F)(F)F)[C@H](OCC(F)F)[C@@H](n2cc(-c3ccc(Cl)c(F)c3F)nn2)[C@H]1O [Example 54] |
| 11 | CO[C@@H]1[C@@H](n2cc(-c3c(F)c(F)c(Br)c(F)c3F)nn2)[C@@H](O)[C@@H](CO)O[C@H]1c1nncn1-c1cc(Cl)ccc1OC(F)(F)F [Example 55] |
| 11 | CO[C@@H]1[C@@H](n2cc(-c3ccc(Cl)c(F)c3F)nn2)[C@@H](O)[C@@H](CO)O[C@H]1c1nncn1-c1cc(Cl)ccc1OC(F)(F)F [Example 56] |
| 21 | OC[C@H]1O[C@@H](c2nncn2-c2cc(Cl)ccc2OC(F)(F)F)[C@H](OCC(F)F)[C@@H](n2cc(-c3ccc(Br)c(F)c3F)nn2)[C@H]1O [Example 57] |
| 14 | OC[C@H]1O[C@@H](c2nncn2-c2cc(Cl)ccc2C(F)(F)F)[C@H](OCC(F)(F)F)[C@@H](n2cc(-c3ccc(Br)c(F)c3F)nn2)[C@H]1O [Example 58] |
| 57 | OC[C@H]1O[C@@H](c2nncn2-c2cc(Cl)ccc2OC(F)(F)F)[C@H](OCC(F)(F)F)[C@@H](n2cc(-c3ccc(Br)c(F)c3F)nn2)[C@H]1O [Example 59] |
| 14 | OC[C@H]1O[C@@H](c2nncn2-c2cc(Cl)ccc2C(F)(F)F)[C@H](OCC(F)(F)F)[C@@H](n2cc(-c3ccc(Cl)c(F)c3F)nn2)[C@H]1O [Example 60] |
| 49 | OC[C@H]1O[C@@H](c2nncn2-c2cc(Cl)ccc2OC(F)(F)F)[C@H](OCC(F)(F)C(F)F)[C@@H](n2cc(-c3ccc(Br)c(F)c3F)nn2)[C@H]1O [Example 61] |
| 40 | OC[C@H]1O[C@@H](c2nncn2-c2cc(Cl)ccc2C(F)(F)F)[C@H](OCC(F)F)[C@@H](n2cc(-c3ccc(Br)c(F)c3)nn2)[C@H]1O [Example 62] |
| 78 | OC[C@H]1O[C@@H](c2nncn2-c2cc(Cl)ccc2C(F)(F)F)[C@H](OCC(F)(F)F)[C@@H](n2cc(-c3ccc(Br)c(F)c3)nn2)[C@H]1O [Example 63] |
| 100 | OC[C@H]1O[C@@H](c2nncn2-c2cc(Cl)ccc2C(F)(F)F)[C@H](OCC(F)(F)C(F)F)[C@@H](n2cc(-c3ccc(Br)c(F)c3)nn2)[C@H]1O [Example 64] |
| 18 | OC[C@H]1O[C@@H](c2nncn2-c2cc(Cl)ccc2C(F)(F)F)[C@H](OCC(F)(F)C(F)F)[C@@H](n2cc(-c3ccc(Br)c(F)c3F)nn2)[C@H]1O [Example 65] |

Same assay, conditions: table of Examples 69 to 75

| IC50 [nM] | SMILES |
| --- | --- |
| 130 | OC[C@H]1O[C@@H](c2nncn2-c2cc(Cl)cc3cccnc23)[C@H](OCC(F)F)[C@@H](n2cc(-c3cc(F)c(Br)c(F)c3)nn2)[C@H]1O [Example 69] |
| 11 | OC[C@H]1O[C@@H](c2nncn2-c2ccc3ncsc3c2)[C@H](OCC(F)F)[C@@H](n2cc(-c3ccc(Br)c(F)c3F)nn2)[C@H]1O [Example 70] |
| 20 | Cc1nc2ccc(-n3cnnc3[C@@H]3O[C@H](CO)[C@H](O)[C@H](n4cc(-c5ccc(Br)c(F)c5F)nn4)[C@H]3OCC(F)F)cc2s1 [Example 71] |
| 16 | Cc1nc2ccc(-n3cnnc3[C@@H]3O[C@H](CO)[C@H](O)[C@H](n4cc(-c5cc(F)c(Cl)c(F)c5)nn4)[C@H]3OCC(=O)O)cc2s1 [Example 72] |
| 54 | CNCCN(C)C(=O)CO[C@@H]1[C@@H](n2cc(-c3cc(F)c(Cl)c(F)c3)nn2)[C@@H](O)[C@@H](CO)O[C@H]1c1nncn1-c1ccc2nc(C)sc2c1 [Example 73] |
| 35 | Cc1nc2ccc(-n3cnnc3[C@@H]3O[C@H](CO)[C@H](O)[C@H](n4cc(-c5cc(F)c(Cl)c(Cl)c5)nn4)[C@H]3O)cc2s1 [Example 74] |
| 18 | Cc1nc2ccc(-n3cnnc3[C@@H]3O[C@H](CO)[C@H](O)[C@H](n4cc(-c5cc(F)c(Cl)c(Cl)c5)nn4)[C@H]3OCC(=O)O)cc2s1 [Example 75] |
